Laboratory results as given in patent US7316996B2, “Bisacyloxypropylcysteine conjugates and the use thereof” (GBF Gesellschaft fur Biotechnologische Forschung mbH, priority 2002, dated 2008).
“Also recorded” adds a separate entry of the source.

Legend:
[1] = test system: β-gal-specific IgA; assay: β-gal-specific IgA in lung and vaginal washings of intranasally immunized mice; type: in vivo, BALB/c (H-2d) mice; conditions: intranasal immunization with β-gal plus adjuvant
Procedure: (§1) 6-8-week-old female BALB/c (H-2d) mice (Harlan Winkelmann GmbH, Borchen, Germany) were used for the experiments. Groups of in each case 5 mice were administered 50 μg of β-galactosidase (β-gal) (Boehringer, Mannheim, Germany), either on its own or together with 0.5 μg of synthetic R-MALP-2, S-MALP-2 or BPP-Cys-PEG, as adjuvant, by the nasal route (25 μl) on days 1, 14 and 21. Serum samples were withdrawn on day 31 and stored at −20° C. until the β-gal-specific antibodies were determined. Nunc-Immuno MaxiSorp test plates containing 96 wells (Nunc, Roskilde, Denmark) were coated with 100 μl of β-gal (Boehringer, Mannheim, Germany), containing 5 μg/ml in 0.05 mol carbonate buffer (pH 8.2), per well. Serial double dilutions of the sera or washings in PBS containing 1% BSA and 0.05% Tween 20 were added (100 μl/well) and the plates were incubated at 37° C. for 2 hours. […]
Vaginal and lung washings were obtained by rinsing the organs with […] PBS which contained 50 mM EDTA, 0.1% BSA and 10 mM PMSF. […] In order to investigate the capacity of R-MALP-2, S-MALP-2 and BPP-Cys-PEG for stimulating effective humoral immune responses, the serum titers of β-gal-specific antibodies were determined in the inoculated mice.

[2] = test system: mouse peritoneal macrophages; assay: Nitrogen monoxide release assay (macrophage activation test); type: cell-based, C3H/HeJ mice; conditions: FIG. 1
Text: In principle, the activation of macrophages and monocytes can be measured by a large number of parameters, for example by means of the release of cytokines, chemokines or arachidonic acid metabolites in cultures of human monocytes or murine peritoneal macrophages. The test which is used here is based on the simultaneous stimulation of mouse peritoneal macrophages with interferon-γ and macrophage activator, e.g. BAP-Cys-PEG, so as to release nitrogen monoxide. (Reference: Muhlradt, P. F., and Frisch, M., 1994, “Purification and partial biochemical characterization of a Mycoplasma fermentans-derived substance that activates macrophages to release nitric oxide, tumor necrosis factor, and interleukin-6”, Infect. Immun. 62:3801-3807).
In brief, peritoneal macrophages from C3H/HeJ mice were used as the macrophage source. They were cultured in 96-well microtiter plates and stimulated simultaneously with rIFN-γ and a serial dilution of macrophage activator. Insofar as necessary, the macrophage activators were dissolved in 25 mM octylglucoside in the first dilution step and then diluted further with medium. After an incubating time of 45-48 hours, the nitrate was reduced with nitrate reductase and the starting substance nitrogen monoxide was determined, as the sum of nitrate and nitrite, using Griess' reagent. […]

[3] = test system: diabetic mice (C57BKLS/Bom-db); assay: Wound healing in diabetic mice; type: in vivo; conditions: 3×200 kU per animal on days 0, 2 and 5, in methylcellulose and 5% mouse serum; versus carrier control; FIG. 2
Text: As in the case of diabetic patients, wound healing is also disturbed in diabetic mice and proceeds more slowly than in wild-type mice. The diabetic mouse is therefore an established animal model for wound healing.
An area of approx. 4×4 cm in size was shaved on the backs of 20 diabetic mice ([…] C57BKLS/Bom-db) and this area was depilated with Veet two days later, after which the cream was carefully removed. After a further two days, the depilated backs of the mice were disinfected with Braunol. After anaesthesia had been initiated with isoflurane/air, an additional local anaesthesia was performed by means of the i.c. injection of 2% xylocaine directly into the site envisaged for the excision, and the skin was defatted with trichloroethylene. After that, scissors were used to cut out a circular skin wound of 1.3 cm in diameter in each of the mice. The wounds were closed with a transparent plaster (Hydrofilm, F. Hartmann) and dressing adhesive. An additional, larger plaster, having an aperture corresponding to the wound, making possible continued observation of the wound, was adhered on top of the first plaster.
3×200 kUnits of BPP-Cys-PEG, in methylcellulose and 5% mouse serum (as carrier), were administered, per animal, through the transparent plaster on days 0, 2 and 5.
Control mice were only given the carrier mixture. […]

[4] = test system: spleen cells; assay: β-gal-specific T cell proliferation of spleen cells from immunized mice ([3H]-thymidine uptake); type: in vivo, BALB/c (H-2d) mice; conditions: spleen cells re-stimulated in vitro for 4 days with soluble β-gal; FIG. 6
Text: FIG. 6: β-gal-specific T cell proliferation responses of spleen cells from immunized mice. The cells were re-stimulated in vitro over 4 days with different concentrations of soluble β-gal. The results are depicted as ratios between the values (means of triple determinations) from stimulated and unstimulated samples (stimulation index).
The spleens were removed and taken together for analyzing the cell immune responses. The cells were propagated in RPMI 1640, additionally containing 10% calf serum, 100 U of penicillin/ml, 15 μg of streptomycin/ml, 5×10^−5 M 2-mercaptoethanol and 1 mM L-glutamine (GIBCO BRL, Karlsruhe, Germany), and stored at 37° C. in a moist atmosphere containing 5% CO2. […] These cells were then harvested on filter paper (Filtermat A; Wallac, Freiburg, Germany) using a cell harvester (Inotech, Wohlen, Switzerland) and the quantity of [^3H] thymidine taken up into the DNA of proliferating cells was determined using a scintillation counter (Wallac 1450, Micro-Trilux). The results were recorded as the ratios between the values (mean values, determined in triplicate) of stimulated and unstimulated samples (stimulation index).

[5] = test system: β-galactosidase-specific antibodies; assay: Serum β-gal-specific IgG (ELISA) after intranasal immunization with β-gal plus adjuvant; type: in vivo, BALB/c (H-2d) mice
Procedure: FIG. 3: Humoral responses which are stimulated after inoculating with MALP-2 derivatives and BPP-Cys-PEG, as mucosal adjuvants, at a dose of 0.05 μg per animal per immunization. The mice were immunized intranasally, on days 0, 7 and 14, with β-galactosidase (50 μg/dose) mixed with the above derivatives. On day 31 after the first immunization, serum samples were withdrawn and the concentrations of the β-galactosidase-specific antibodies were determined by means of ELISA. The results are depicted as end point titers.
as §1

## bispalmitoyloxy-propylcysteine-PEG [BPP-Cys-PEG]
[1]; FIG. 4
  β-gal-specific IgA in lung washings: significant increase in antigen-specific IgA antibodies
[1]; FIG. 5
  β-gal-specific IgA in vaginal washings: significant concentrations of β-gal-specific IgA
[2]; comparison with TPP-Cys-PEG (PAM3-Cys-PEG)
  concentration achieving the same degree of macrophage activation, relative to TPP-Cys-PEG: approx. forty times lower
[2]; peritoneal macrophages co-stimulated with rIFN-γ, 45-48 hours
  potential for activating macrophages (nitrogen monoxide production), compared with PAM3-Cys-PEG: markedly higher potential for activating macrophages
[3]
  wound healing: accelerated the wound healing significantly
[4]
  β-gal-specific T cell proliferation response (stimulation index): effective proliferation response; also recorded: strongest T cell proliferation response
[5]; intranasal, 50 μg β-gal with 0.5 μg adjuvant, serum on day 31, FIG. 3
  antigen-specific (β-gal) serum IgG titers: rise more rapidly than those obtained using R-MALP-2
[5]; summary of humoral and cellular responses, systemic and mucosal
  effectiveness as a mucosal adjuvant compared with R-MALP-2 (overall conclusion): at least as effective as, or even more effective than, R-MALP-2
